Consider two molecules from US20230146870A1, “METHOD TO QUANTIFY AFFINITY AND SELECTIVITY OF SMALL MOLECULES FOR PROTEINS IN LIVING CELLS” (Ohio State Innovation Foundation, priority 2021, published 2023).

“Also recorded” adds a separate entry of the source.

Assay [1] has as its target murine PKCζ-mVenus (Mus musculus, UniProt Q02956). Kind of assay: FPCBA saturation binding of probe 1, HEK293 cells expressing PKCζ-mVenus (Example 3). The settings on record: BIM1 2 μM, 2 h at 37° C., 4% FBS.
The target in assay [2] is T1, native (untagged) murine PKCβI (Mus musculus, UniProt P68404).
T1 construct: For coexpression of full-length unmodified PKC proteins with mVenus as an independent marker; expressed in transfected cells; host or cells: HEK293 (transient, pIRES-mVenus)
Kind of assay: FPCBA saturation binding of probe 1, native PKCβI (IRES-mVenus) in HEK293 cells.
Source text: To measure the binding of 1 and 2 to PKCβI in cells, we used flow cytometry to analyze the blue fluorescence of transfected and non-transfected cells as a function of probe concentration at equilibrium (FIGS. 37A-37F). In these assays, we directly compared the PKCβI-mVenus fusion protein with native PKCβI expressed separately from mVenus. […] This low background signal facilitated saturation binding assays, where non-specific binding of probes to non-transfected cells was subtracted from total binding to highly transfected cells (P2 gate) to measure specific binding. […] We further compared cells treated with and without the orthosteric PKC catalytic inhibitor BIM1 to block the kinase activity of PKC and isolate the analysis of interactions of 1 and 2 with the C1 regulatory domains of PKCbI.

Assay [3] deals with murine PKCα-mVenus (Mus musculus, UniProt P20444). Kind of assay: FPCBA saturation binding of probe 1, HEK293 cells expressing PKCα-mVenus (Example 3).
In assay [4] the target is native (untagged) murine PKCη (Mus musculus, UniProt P23298). Kind of assay: FPCBA saturation binding of probe 1, native PKCη (IRES-mVenus) in HEK293 cells.
The target of assay [5] is T2, native (untagged) murine PKCζ (Mus musculus, UniProt Q02956).
T2 sequence (Q02956 1-592): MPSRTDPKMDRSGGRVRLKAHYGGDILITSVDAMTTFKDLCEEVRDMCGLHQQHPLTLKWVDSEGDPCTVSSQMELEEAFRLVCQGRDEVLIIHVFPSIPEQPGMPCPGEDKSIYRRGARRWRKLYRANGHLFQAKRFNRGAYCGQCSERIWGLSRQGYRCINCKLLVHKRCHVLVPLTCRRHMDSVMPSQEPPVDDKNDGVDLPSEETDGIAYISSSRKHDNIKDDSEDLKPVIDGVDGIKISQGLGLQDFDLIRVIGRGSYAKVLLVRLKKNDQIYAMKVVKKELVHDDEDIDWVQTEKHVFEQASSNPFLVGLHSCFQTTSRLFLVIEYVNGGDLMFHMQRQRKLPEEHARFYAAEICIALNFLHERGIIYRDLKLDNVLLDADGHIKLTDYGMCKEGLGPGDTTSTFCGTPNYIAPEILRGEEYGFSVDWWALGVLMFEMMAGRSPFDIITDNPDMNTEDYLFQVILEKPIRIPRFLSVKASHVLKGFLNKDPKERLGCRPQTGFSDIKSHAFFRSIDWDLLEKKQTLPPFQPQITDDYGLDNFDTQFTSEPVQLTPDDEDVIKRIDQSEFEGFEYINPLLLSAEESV
Kind of assay: FPCBA saturation binding of probe 1, native PKCζ (IRES-mVenus) in HEK293 cells. To be noted: BIM1 2 μM, 2 h at 37° C., 4% FBS.

Assay [6] deals with T3, PKCβI-mVenus (Mus musculus, UniProt P68404).
T3 construct: we generated expression vectors for eight full-length mouse isozymes; expressed in transfected cells; host or cells: HEK293 (ATCC CRL-1573), transient transfection with CMV-PKC betaI-mVenus-N1
Kind of assay: Confocal microscopy of translocation of PKCβI-mVenus in HEK293 cells. The assay is classed as cell-based. To be noted: 2 μM, 2 h. On the procedure:
FIGS. 36A-36D provide confocal and DIC micrographs of living HEK293 cells transiently transfected to express PKCβI-mVenus. […] Scale bars=10 microns.
This IRES vector was derived from a previously reported^52 variant encoding the somewhat less fluorescent protein Venus.
Living cells cultured on an 8-well chamber glass slide (Ibidi μ-Slide, 300 μL, 100,000 cells/well) were imaged with an inverted Leica TCS SP8 confocal laser-scanning microscope (63× oil-immersion objective). Fluorescent probes were excited at 405 nm and mVenus was excited at 488 nm. Emitted photons were collected from 425-500 nm and 500-650 nm. For imaging, transiently transfected HEK293 cells in complete medium (10% FBS) were plated on the Ibidi μ-Slide for 16 h to promote adherence. Concentrated stock solutions of fluorescent probes in DMSO were serially diluted 500-fold in serum-free DMEM medium to afford 2× stock solutions (0.2% DMSO). Half of the cell culture medium (150 μL) was carefully removed by pipet and gently replaced with the 2× stock solution of the probe in serum-free medium (final [FBS]˜5%). Cells were treated with probes (2 μM) at 37° C. for 2 h before imaging by microscopy. Laser power and PMT gain settings were identical for all images and controls within a given experiment for accurate comparisons of cellular fluorescence.

Assay [7] addresses murine PKCγ-mVenus (Mus musculus, UniProt P63318). Kind of assay: FPCBA saturation binding of probe 1, HEK293 cells expressing PKCγ-mVenus (Example 3).
Assay [8] concerns the target PKCβI (Homo sapiens, UniProt P05771). To be noted: radiolabeled PDBu at 4° C.; read-out: Biochemical Ki, PKCβI; cited from earlier work.
In assay [9] the target is PKCε (Homo sapiens, UniProt Q02156). To be noted: radiolabeled PDBu at 4° C.; read-out: Biochemical Ki, PKCε; cited from earlier work.
Assay [10] addresses PKCα (Homo sapiens, UniProt P17252). The settings on record: radiolabeled PDBu at 4° C.; read-out: Biochemical Ki, PKCα; cited from earlier work.
Assay [11] addresses native (untagged) murine PKCα (Mus musculus, UniProt P20444). Kind of assay: FPCBA competition with probe 1, native PKCα in HEK293 cells. The assay is classed as binding. More on the design: For coexpression of full-length unmodified PKC proteins with mVenus as an independent marker; expressed in transfected cells; host or cells: HEK293 (transient, pIRES-mVenus). The settings on record: read-out: Cellular Ki for native PKCα (95% confidence interval); probe 1 400 nM, BIM1 2 μM, 2 h at 37° C.

T1 sequence (P68404 2-673 isoform P68404-2): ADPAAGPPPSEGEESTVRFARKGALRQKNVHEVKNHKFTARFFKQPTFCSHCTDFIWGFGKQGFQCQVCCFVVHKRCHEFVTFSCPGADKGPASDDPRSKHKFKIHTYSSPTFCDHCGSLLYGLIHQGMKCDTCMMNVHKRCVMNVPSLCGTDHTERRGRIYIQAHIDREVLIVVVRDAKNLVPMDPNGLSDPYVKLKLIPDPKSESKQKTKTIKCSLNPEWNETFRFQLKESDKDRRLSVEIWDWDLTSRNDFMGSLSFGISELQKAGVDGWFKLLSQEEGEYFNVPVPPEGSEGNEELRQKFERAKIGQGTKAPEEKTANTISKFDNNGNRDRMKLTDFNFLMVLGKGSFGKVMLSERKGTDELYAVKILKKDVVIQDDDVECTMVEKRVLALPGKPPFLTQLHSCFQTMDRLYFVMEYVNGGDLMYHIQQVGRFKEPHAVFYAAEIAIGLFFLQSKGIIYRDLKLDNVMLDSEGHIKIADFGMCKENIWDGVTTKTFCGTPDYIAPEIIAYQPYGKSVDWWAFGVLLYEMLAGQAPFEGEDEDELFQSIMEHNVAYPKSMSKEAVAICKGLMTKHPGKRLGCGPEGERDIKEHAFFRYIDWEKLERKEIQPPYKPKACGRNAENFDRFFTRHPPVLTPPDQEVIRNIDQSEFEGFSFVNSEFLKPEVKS
Sequence of native (untagged) murine PKCη (P23298 whole entry): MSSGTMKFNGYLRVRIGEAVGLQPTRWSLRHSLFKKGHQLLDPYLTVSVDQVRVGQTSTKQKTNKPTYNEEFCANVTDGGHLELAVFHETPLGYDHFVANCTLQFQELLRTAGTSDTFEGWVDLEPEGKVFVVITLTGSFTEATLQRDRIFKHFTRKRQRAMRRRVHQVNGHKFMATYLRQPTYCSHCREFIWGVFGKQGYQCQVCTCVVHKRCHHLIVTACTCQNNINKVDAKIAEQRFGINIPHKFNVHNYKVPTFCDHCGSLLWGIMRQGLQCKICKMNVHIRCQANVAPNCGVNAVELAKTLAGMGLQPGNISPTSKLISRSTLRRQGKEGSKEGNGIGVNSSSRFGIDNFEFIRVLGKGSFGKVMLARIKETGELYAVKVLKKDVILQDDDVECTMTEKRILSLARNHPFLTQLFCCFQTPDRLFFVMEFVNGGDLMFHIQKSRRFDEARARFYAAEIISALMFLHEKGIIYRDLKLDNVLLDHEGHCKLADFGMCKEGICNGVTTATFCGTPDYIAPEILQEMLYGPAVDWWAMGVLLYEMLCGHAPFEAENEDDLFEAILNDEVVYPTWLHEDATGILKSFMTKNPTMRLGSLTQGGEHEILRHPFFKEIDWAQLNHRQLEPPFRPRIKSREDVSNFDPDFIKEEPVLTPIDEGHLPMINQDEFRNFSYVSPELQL
T3 sequence (P68404 whole entry): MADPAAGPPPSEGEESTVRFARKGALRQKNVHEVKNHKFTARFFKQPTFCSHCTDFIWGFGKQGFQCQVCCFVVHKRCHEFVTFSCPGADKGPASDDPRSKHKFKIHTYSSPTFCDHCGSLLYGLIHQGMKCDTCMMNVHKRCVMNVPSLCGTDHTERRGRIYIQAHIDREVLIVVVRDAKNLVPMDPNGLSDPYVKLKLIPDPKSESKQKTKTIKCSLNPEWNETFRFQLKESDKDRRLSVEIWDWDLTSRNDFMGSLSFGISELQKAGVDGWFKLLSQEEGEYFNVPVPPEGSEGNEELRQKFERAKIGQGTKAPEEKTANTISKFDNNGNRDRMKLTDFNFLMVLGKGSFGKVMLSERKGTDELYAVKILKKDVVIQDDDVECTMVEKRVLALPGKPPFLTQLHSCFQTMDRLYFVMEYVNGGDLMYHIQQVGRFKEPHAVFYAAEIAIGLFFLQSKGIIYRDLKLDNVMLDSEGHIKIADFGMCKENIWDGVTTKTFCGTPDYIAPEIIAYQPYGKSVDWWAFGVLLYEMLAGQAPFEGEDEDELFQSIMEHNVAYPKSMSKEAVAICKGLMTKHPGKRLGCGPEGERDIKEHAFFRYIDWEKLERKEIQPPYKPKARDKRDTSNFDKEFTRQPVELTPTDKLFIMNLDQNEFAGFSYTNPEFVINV

In the case of `CCCCCCN(CCCCCCCCCCCCNC(=O)c1cc2cc(F)c(O)c(F)c2oc1=O)C(=O)O[C@@]12[C@H](O)[C@@H](C)[C@@]3(O)[C@@H](C=C(CO)C[C@]4(O)C(=O)C(C)=C[C@@H]34)[C@@H]1C2(C)C` [probe 1, (1aR,1bS,4aR,7aS,7bS,8R,9R,9aS)-4a,7b,9-trihydroxy-3-(hydroxymethyl)-1,1,6,8-tetramethyl-5-oxo-1,1a,1b,4,4a,5,7a,7b,8,9-decahydro-9aH-cyclopropa[3,4]benzo[1,2-e]azulen-9a-yl (12-(6,8-difluoro-7-hydroxy-2-oxo-2H-chromene-3-carboxamido)dodecyl)(hexyl)carbamate], the “Cellular Kd for probe, PKCζ-mVenus” value in assay [1] was “No binding”. In addition, the “affinity of native untagged PKCβI relative to PKCβI-mVenus fusion” value in assay [2] is recorded as around 2 fold. Further, the dissociation constant (Kd) in assay [2] (IRES-mVenus, BIM1 2 μM, 2 h at 37° C., 4% FBS, read-out: Cellular Kd for probe, native PKCβI) was found to be 97 nM; in assay [3] it was 314 ± 37 nM; in assay [4], 177 nM; in [7], 391 ± 142 nM. The “Cellular Kd for probe, native PKCζ” value in assay [5] is “did not bind; also recorded: No binding”. The “translocation of PKCβI-mVenus” value in assay [6] is “translocated to cellular membranes”.
Take `CCC/C=C/C=C/C(=O)O[C@H]1/C(=C/C(=O)OC)C[C@H]2C[C@H]([C@@H](C)O)OC(=O)C[C@H](O)C[C@@H]3C[C@H](OC(C)=O)C(C)(C)[C@](O)(C[C@@H]4C/C(=C/C(=O)OC)C[C@H](/C=C/C(C)(C)[C@]1(O)O2)O4)O3` [bryostatin 1]: the Ki in [8] is 2.2 nM; in [9] it was 3 nM; in [10] it was 0.81 nM; in assay [11] it was 3 nM.
